Assay results as given in US20250002467A1, “DESIGN, SYNTHESIS AND MECHANISMS OF ANTICANCER ACTIVITY OF NEW ACETYLATED 5-AMINOSALICYLATE-THIAZOLINONE HYBRID DERIVATIVES” (University of Sharjah, priority 2023, published 2025).

Key:
Format in all cases: cell-based
[1] = system: MCF7, HCT-116 and A549 cells; test: Neutral comet assay; conditions: for level of DNA damage (tail moment): 0.5 and 1 μM, 24 hours, three cell lines
Description: MCF7, HCT-116 and A549 cells were treated with […] of HH32 or HH33 compounds for 24 hours and control cells were treated with vehicle (DMSO). A group of cells was treated with doxorubicin as a reference drug using the same treatment conditions. Comet assay was performed in neutral condition to detect DNA double-strand breaks using comet assay kit (Trevigen Inc., Maryland, USA) according to the manufacturer's instructions. The tail moment, which reflect the amount of DNA damage in each nucleus, was calculated in at least 50 cells using OpenComet software.

[2] = system: eight tested cancer cell lines; test: SRB cytotoxicity assay, eight cancer cell lines; conditions: for viability of the eight tested cancer cell lines: SRB, 0.0001 to 100 μM; for selectivity index compared with doxorubicin: cancer cell lines versus normal cells
Description: Eight different cancer cell lines were acquired from the Radiobiology and Experimental Radio Oncology lab, University Medical Center, Hamburg University, Hamburg, Germany. MCF7, MDA-MB-231 (breast cancer), and A549 (lung cancer) cells were maintained in RPMI medium while HCT116 (colon cancer), HepG2 (liver cancer), U87, U373 (glioblastoma), and HeLa (cervical cancer) were maintained in DMEM supplemented with 10% FBS and 1% penicillin/streptomycin (Sigma Aldrich, Missouri, USA). Normal human fibroblast (F180) cells were maintained in DMEM supplemented with 15% FBS. Normal human mammary epithelial cell line (HME1) were maintained in DMEM/F-12 medium supplemented with 10% FBS. All incubations were done at 37° C. in a humidified atmosphere of 5% CO2. All cell lines were authenticated by short tandem repeat (STR) profiling. The CDK4 knockout cells (provided by Dr. Samrein Ahmed, University of Sharjah, United Arab Emirates) were generated by CRISPR-CAS9 technology and were maintained in DMEM supplemented with 10% FBS.
The cytotoxic effects of HH32 and HH33 compounds were evaluated at various concentrations ranging from 0.0001 to 100 μM by sulphrhodamine-B (SRB) assay as described previously. The anti-proliferative activity was expressed as growth inhibitory concentration (IC50) values, which were calculated by the sigmoidal dose-response curve fitting method using Graph pad prism 6 software (GraphPad Software, San Diego, CA, USA).

[3] = system: MCF7, HCT-116, HeLa and A549 cells; test: Western blot protein expression analysis; conditions: for cyclin E, cyclin D1 and CDK2 levels: G1-S phase transition proteins; for phospho-Rb (ser249): HCT116 and HeLa cells; for level of p-H2Ax (y-H2Ax): MCF7, HeLa, HCT116, and A549 cells, 24 h; for cleavage of caspase-8: all cell lines; for ATR/Chk1 signaling: four cell lines
Description: The protein expression analysis was done after treatment with […] of HH32 and HH33 compounds for 24 hours by western blot. Cell lysates were prepared using lysis buffer containing 20% SDS, glycerol, 1M Tris (pH 6.8) and supplemented with protease and phosphatase inhibitors (Sigma Aldrich, Missouri, USA). The proteins were separated by SDS-PAGE and transblotted into nitrocellulose membrane (Biorad, Hercules, CA, USA). Membrane were incubated overnight at 4° C. with the following primary antibodies: 7H2AX, H2Ax, p21, CDC2, CDC25c, cyclin B, c-Myc, Bid, ATM, p-ATM, ATR, p-ATR, Chk1, p-Chk1, Chk2, p-Chk2, caspase 9, caspase 8, pRb (Ser807/811) (Cell Signaling Technology, Massachusetts, USA), p53, cyclin A, cyclin E, cyclin D1, CDK2, Rb, pRb (Ser249) (Santa Cruz Biotech, Texas, USA) and β-actin (Sigma Aldrich, Missouri, USA). Membranes were then incubated with respective mouse/rabbit secondary antibody (Cell Signaling Technology, Massachusetts, USA) for 1 hour at room temperature and detected by enhanced chemiluminescence (ECL) (Biorad, Hercules, CA, USA) method using Chemi Doc imaging system (Biorad, Hercules, CA, USA). The protein bands were quantified using Image lab™ software (Biorad, Hercules, CA, USA).

[4] = system: MCF7 cells; test: Transcriptomic analysis of HH33-treated MCF7 cells; conditions: confirmed by quantitative RT-PCR
[5] = system: A549 cells; test: Transcriptomic analysis of HH33-treated A549 cells
Description: RNA extraction was carried out followed by cDNA synthesis using SuperScript VILO cDNA Synthesis kit (Invitrogen, Waltham, MA, USA) and amplification using Ion AmpliSeq gene expression core panel primers. The prepared library was purified using Agencourt AMPure XP beads (Beckman Coulter, California, USA) and quantified using Ion Library TaqMan™ Quantitation Kit (Applied Biosystems, Waltham, MA, USA). The libraries were further diluted to […] and pooled equally with four individual samples per pool. The pooled libraries were amplified using emulsion PCR on Ion OneTouch™ 2 instrument (OT2) and the enrichment was performed on Ion OneTouch™ ES following the manufacturer's instruction. Thus, prepared template libraries were then sequenced with Ion S5 XL Semiconductor sequencer using the Ion 540™ Chip. RNA-seq data were analyzed using Ion Torrent Software Suite version 5.4 and the alignment was carried out using modifications of the Torrent Mapping Alignment Program (TMAP) optimizing it for aligning the raw sequencing reads against reference sequence derived from hgl9 (GRCh37) assembly. The specificity and sensitivity was maintained by implementing a two-stage mapping approach by employing BWA-short, BWA-long, SSAHA [31], Super-maximal Exact Matching and Smith Waterman algorithm for optimal mapping. Raw read counts of the targeted genes were performed using Samtools (Samtools view —c -F 4-L bed_file bam_file) and the number of expressed transcripts was confirmed after Fragments Per Kilobase Million (FPKM) normalisation. Differentially expressed gene (DEG) analysis was performed using a script written in R programming language (version 3.6.3) with function calls to DESeq2 package from Bioconductor library sets. Raw read counts from RNASeq were normalized using quantile normalization. All counts ranked “0” were excluded. Differentially expressed genes between the two set of cell lines [HH33-treated (n=3), and untreated (n=3)] were assessed using 2 tailed t-test. Differentially expressed genes with p-value of <0.05, adjusted p-value<0.8 and 5-fold difference were included for pathway analysis using Metascape.

[6] = A549, H33-treated vs DMSO-treated, DNA repair pathways
[7] = H33-treated A549 cells/DMSO-treated A549 cells, Apoptosis
[8] = H33-treated A549 cells/DMSO-treated A549 cells, Cell Cycle
[9] = H33-treated A549 cells/DMSO-treated A549 cells, Transcriptional Regulation by TP53

Which “level of DNA damage (tail moment)” value [1] does the source give for `COC(=O)c1cc(NC2=NC(=O)C(=Cc3ccc(C)cc3)S2)ccc1OC(C)=O` [HH32, Methyl 2-acetoxy-5-[(5-(4-methylbenzylidene)-4 (H)-oxo-1,3-thiazol-2-yl)-amino]benzoate] here?
Its value is “increased”.

And the “viability of the eight tested cancer cell lines” value [2]?
Its value is “remarkable concentration-dependent decrease”.

And the “selectivity index compared with doxorubicin” value [2]?
Its value is “superior in most of cancer cell lines than doxorubicin”.

And the “total c-Myc protein level” value ([3]; 1 μM, MCF7 and HCT-116 cells)?
The value was “downregulation”.

And the “cyclin E, cyclin D1 and CDK2 levels” value [3]?
The value was “slightly changed”.

What about the “phospho-Rb (ser249)” value [3] of the same molecule?
The value was “increased”.

And the “phospho-Rb (ser807/811)” value ([3]; HCT-116)?
The value was “reduced”.

What about the “expression of p53 and p21” value ([3]; HeLa cells) of the same molecule?
Its value is “reduced”.

And the “phospho-Rb (ser807/811)” value ([3]; HeLa cells)?
The value was “increased”.

And the “phosphorylation status of ATM and Chk2” value ([3]; HeLa cells)?
Its value is “increased significantly”.

And the “expression of p53 and p21” value ([3]; MCF7, HCT-116 and A549 cells)?
Its value is “substantially increased”.

What about the “phosphorylation status of ATM and Chk2” value ([3]; MCF7, HCT-116 and A549 cells) of the same molecule?
Its value is “increased significantly”.

And the “level of p-H2Ax (y-H2Ax)” value ([3]; 0.5 and 1 μM)?
Its value is “marked elevation”.

What about the “cleavage of caspase-8” value [3] of the same molecule?
The value was “cleaved”.

What about the ATR/Chk1 signaling [3] of the same molecule?
The ATR/Chk1 signaling was “activate”.

Which “six shared genes (ATAD2, CDCA3, FAMIIIB, CDKN3, HISTIH2AH, MIS18BP1)” value [4] does the source give for `COC(=O)c1cc(NC2=NC(=O)C(=Cc3ccc(N(C)C)cc3)S2)ccc1OC(C)=O` [HH33, Methyl 2-acetoxy-5-[(5-(4-dimethylaminobenzylidene)-4 (H)-oxo-1,3-thiazol-2-yl)-amino]benzoate] here?
Its value is “maximally downregulated”.

What about the “level of DNA double strand breaks compared with doxorubicin” value ([1]; 1 μM, same concentration, three tested cell lines) of the same molecule?
Its value is “higher than doxorubicin”.

What about the “level of DNA damage (tail moment)” value [1] of the same molecule?
The value was “increased”.

What about the “comet length compared with HH32-treated cells” value ([1]; MCF7 and HCT-116 cells) of the same molecule?
Its value is “markedly higher”.

What about the “Fold change (H_Mean/D_Mean) CLSPN” value ([5]; A549, H33-treated vs DMSO-treated, DNA repair / cell cycle) of the same molecule?
The value was 0.01798.

And the “Fold change (H_Mean/D_Mean) BARD1” value ([5]; A549, H33-treated vs DMSO-treated, DNA repair / cell cycle / TP53 regulation)?
The value was 0.0451.

And the “Fold change (H_Mean/D_Mean) ACTR8” value [5, 6]?
Its value is 0.01139.

What about the “Fold change (H_Mean/D_Mean) CHEK2” value [5, 6] of the same molecule?
The value was 0.05943.

What about the “Fold change (H_Mean/D_Mean) EYA3” value [5, 6] of the same molecule?
Its value is 0.02596.

And the “six shared genes (ATAD2, CDCA3, FAMIIIB, CDKN3, HISTIH2AH, MIS18BP1)” value ([5]; A549, confirmed by quantitative RT-PCR)?
Its value is “maximally downregulated”.

What about the apoptotic signaling pathway ([5]; A549, hypergeometric test) of the same molecule?
Its apoptotic signaling pathway is “upregulation”.

And the “cell cycle progression pathway” value ([5]; A549, hypergeometric test)?
Its value is “down-regulation”.

And the “Fold change BECN1” value [5, 7]?
The value was 186.7500.

What about the “Fold change CRIP1” value [5, 7] of the same molecule?
Its value is 199.5714.

And the “Fold change TGFB1” value [5, 7]?
Its value is 100.8000.

What about the “Fold change TNFRSF10C” value [5, 7] of the same molecule?
Its value is 802.5000.

What about the “Fold change YWHAH” value [5, 7] of the same molecule?
Its value is 168.8804.

And the “Fold change CDC14A” value [5, 8]?
Its value is 0.01425.

And the “Fold change CEP78” value [5, 8]?
The value was 0.01614.

And the “Fold change ODF2” value [5, 8]?
The value was 0.005902.

And the “Fold change CCNE1” value [5, 9]?
Its value is 0.02093.

And the “Fold change CDK9” value [5, 9]?
Its value is 0.02262.

What about the “Fold change COX16” value [5, 9] of the same molecule?
Its value is 0.04666.

What about the “Fold change CSNK2A2” value [5, 9] of the same molecule?
The value was 0.05877.

And the “viability of the eight tested cancer cell lines” value [2]?
The value was “remarkable concentration-dependent decrease”.

And the “selectivity index compared with doxorubicin” value [2]?
Its value is “superior in most of cancer cell lines than doxorubicin”.

What about the “total c-Myc protein level” value ([3]; 0.5 and 1 μM, four cancer cell lines) of the same molecule?
Its value is “decreased”.

And the “cyclin E, cyclin D1 and CDK2 levels” value [3]?
The value was “slightly changed”.

And the “phospho-Rb (ser249)” value [3]?
The value was “increased”.

What about the “phospho-Rb (ser807/811)” value ([3]; HCT-116) of the same molecule?
The value was “reduced”.

And the “expression of p53 and p21” value ([3]; HeLa cells)?
The value was “reduced”.

And the “phospho-Rb (ser807/811)” value ([3]; HeLa cells)?
Its value is “increased”.

And the “expression of p53 and p21” value ([3]; MCF7, HCT-116 and A549 cells)?
The value was “substantially increased”.

What about the “phosphorylation status of ATM and Chk2” value ([3]; MCF7, HCT-116 and A549 cells) of the same molecule?
The value was “increased significantly”.

And the “cleavage of caspase-9” value ([3]; MCF7, HeLa and A549 cells)?
The value was “increase”.

What about the “level of p-H2Ax (y-H2Ax)” value ([3]; 0.5 and 1 μM) of the same molecule?
The value was “marked elevation”.

What about the “cleavage of caspase-8” value [3] of the same molecule?
The value was “cleaved”.

And the “reducing expression of G2/M progression proteins (cyclin A, cyclin B, CDC25c and CDC2/CDK1)” value ([3]; compared with HH32)?
The value was “more effective than HH32”.

And the ATR/Chk1 signaling [3]?
Its ATR/Chk1 signaling is “activate”.
